Values joined by “and” are separate entries in the source; they are usually repeats but may differ in a detail not shown here. Identical values can stand only once.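 Briefly, cells in 96-well plates were exposed to five compound concentrations for 48 h, and endpoints were estimated by linear interpolation. The concentration for 50% growth inhibition is given as GI50. TGI marks complete inhibition of growth.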
Experiments:
Assay in all cases: NCI-60 cell line screen, 48 h
MALME-3M melanoma = test system: MALME-3M melanoma
HCC-2998 colon = test system: HCC-2998 colon
UO-31 renal = test system: UO-31 renal
SNB-19 CNS = test system: SNB-19 CNS
TK-10 renal = test system: TK-10 renal
SF-539 CNS = test system: SF-539 CNS
HT29 colon = test system: HT29 colon
SF-268 CNS = test system: SF-268 CNS
K-562 leukemia = test system: K-562 leukemia
SF-295 CNS = test system: SF-295 CNS

Row | SMILES | GI50 (MALME-3M melanoma) [µM] | TGI (MALME-3M melanoma) | GI50 (HCC-2998 colon) [µM] | TGI (HCC-2998 colon) | GI50 (UO-31 renal) [µM] | TGI (UO-31 renal) | GI50 (SNB-19 CNS) [µM] | TGI (SNB-19 CNS) [µM] | GI50 (TK-10 renal) [µM] | TGI (TK-10 renal) | GI50 (SF-539 CNS) [µM] | TGI (SF-539 CNS) [µM] | GI50 (HT29 colon) [µM] | TGI (HT29 colon) | GI50 (SF-268 CNS) [µM] | TGI (SF-268 CNS) | GI50 (K-562 leukemia) [µM] | TGI (K-562 leukemia) [µM] | GI50 (SF-295 CNS) [µM] | TGI (SF-295 CNS)
1 | Cc1cc(-c2cc(O)ccc2Cl)cc2nnc(Nc3ccc(OCCN4CCCC4)cc3)nc12 | 0.19 | 0.426 µM | 1.94 | 3.66 µM | 1.3 | 2.73 µM | 0.659 | 1.23 | 1.39 | 3 µM | 1.04 | 2.32 | 1.93 | 3.91 µM | 1.99 | 3.91 µM | 0.0443 | 0.245 | 1.7 | 3.32 µM
2 | C=CCC(N[C@H](CO)c1ccccc1)c1cn(Cc2ccccc2Cl)c(=O)n(Cc2ccccc2Cl)c1=O (stereo partly drawn) | 34.5 | 81 µM | 10.7 | 27.3 µM | 6.89 | > 100 µM | 35.7 | > 100 | 46.6 | > 100 µM | 15 | 32.5 | 11 | > 100 µM | 18.6 | > 100 µM | 6.78 | 40.7 | 8.13 | 48 µM
3 | CCOC(=O)C(C#N)C1=CC(=O)C(=O)c2ccc(O)cc21 (stereo not drawn) |  | > 100 µM |  | > 100 µM |  | > 100 µM |  | > 100 |  | > 100 µM |  | > 100 |  | > 100 µM |  | > 100 µM |  | > 100 |  | > 100 µM
4 | CC1(C)CCCC(C)(C2CCC3(C)C2C(O)CC2C4(C)CCC(O)C(C)(C)C4CCC23C)O1 (stereo not drawn) |  | > 100 µM |  | > 100 µM |  | > 100 µM |  | > 100 |  | > 100 µM |  | > 100 |  | > 100 µM |  | > 100 µM |  | > 100 |  | > 100 µM
5 | Clc1ccccc1-c1nnc2c(Cc3ccccc3)nc3ccccc3n12 | 33 | > 100 µM | 59.9 | > 100 µM | > 50 | > 100 µM | 36.3 | > 100 | 54 | > 100 µM | 24.2 | > 100 | 8.71 | > 100 µM | 7.15 | > 100 µM | 5.55 | > 100 | 8.12 | > 100 µM
6 | COc1ccc(S(=O)(=O)N(CC(=O)O)c2ccccc2)cc1 |  | > 100 µM |  | > 100 µM |  | > 100 µM |  | > 100 |  | > 100 µM |  | > 100 |  | > 100 µM |  | > 100 µM |  | > 100 |  | > 100 µM
7 | Nc1c(Cl)ncnc1NCCCCCCCCCCCCNc1ncnc(Cl)c1N |  | > 100 µM |  | 56.9 µM |  | 18.3 µM |  | > 100 |  | > 100 µM |  | 30.3 |  | 49.8 µM |  | > 100 µM |  | > 100 |  | 5.92 µM
8 | Cc1cccc(C)c1N1C(=O)C(=O)C(c2nc3ccccc3s2)/C(=N\N)C1=O (stereo not drawn) |  | > 100 µM |  | > 100 µM |  | > 100 µM |  | > 100 |  | > 100 µM |  | > 100 |  | > 100 µM |  | > 100 µM |  | > 100 |  | > 100 µM
9 | O=C(/C=C/c1cccc([N+](=O)[O-])c1)c1ccc([N+](=O)[O-])cc1 |  | > 100 µM |  | > 100 µM |  | > 100 µM |  | > 100 |  | > 100 µM |  | > 100 |  | > 100 µM |  | > 100 µM |  | > 100 |  | > 100 µM
10 | CCCCCC/C=C\CCCCCCCCCC1=C(CN2CCN(C)CC2)C(=O)C=C(OC)C1=O |  | 9.55 µM |  | 23.8 µM |  | 9.2 µM |  | 24.1 |  | 9.4 µM |  | 40.1 |  | 23.9 µM |  | 19.7 µM |  | 6.32 |  | 25.3 µM
11 | COC(=O)[C@@H]1Cc2c([nH]c3ccccc23)[C@H](c2ccccc2)N1 |  | > 100 µM |  | 91.8 µM |  | 73.9 µM |  | > 100 |  | > 100 µM |  | 67.3 |  | > 100 µM |  | > 100 µM |  | > 100 |  | 64.4 µM
12 | Cn1cc(-c2cnn3c(N)c(Br)c(C4CCCNC4)nc23)cn1 (stereo not drawn) | 6.11 | 27.1 µM | 1.02 | > 42.6 µM | 4.63 | > 78.3 µM | 18.4 | > 100 | 3.69 | > 83 µM | 0.285 | 3.88 | 4.19 | > 73 µM | 15.2 | > 100 µM | 3.85 | > 100 | 0.527 | > 44.4 µM
13 | C/C(=C(\c1ccc(OCCN2CCCCCC2)cc1)c1ccc(OC(=O)c2ccccc2)cc1)c1ccc(Cl)cc1 | 3.6 | 8.72 µM | 2.36 | 7.03 µM | 1.61 | 6.17 µM | 6.61 | 18.5 | 5.14 | 10.8 µM | 3.79 | 8.31 | 1.28 | 4.57 µM | 3.49 | 9.7 µM | 1.31 | 33.3 | 2.71 | 7.44 µM
14 | COc1ccc([C@@]23Oc4cc(OC)cc(OC)c4[C@]2(O)[C@H](O)[C@H](C(N)=O)[C@H]3c2ccccc2)cc1 | 0.0161 | 0.0909 µM and < 0.01 µM |  | 0.0697 µM and 0.0194 µM |  | 0.0765 µM and 0.0995 µM |  | 0.0999 | 0.0278 | 0.101 µM and 0.0367 µM |  | 0.0193 |  | 0.0659 µM and 0.0515 µM | < 0.0113 | 0.0913 µM and < 0.01 µM |  | > 100 |  | 0.0456 µM and < 0.01 µM
15 | CCCCCCCCCCCCOC1C(CNC(=O)C2OC3OC(C)(C)OC3C2NC(=O)CN2CCN(c3ccc(OC)cc3)CC2)OC2OC(C)(C)OC21 (stereo not drawn) | 11.9 | 24.1 µM | 3.4 | 11 µM | 3.36 | 13.4 µM | 5.3 | 17 | 3.96 | 13.4 µM | 6.09 | 22 | 2.12 | 5.12 µM | 3.12 | 11.5 µM | 3.31 | 11.2 | 5.12 | 18.4 µM
16 | CCN(Cc1cccc(Cl)c1)c1ccc(CO)c(Cl)c1 | 15.8 | 32.8 µM | 11.3 | 24.8 µM | 3.55 | 17.6 µM | 13.8 | 28.6 | 0.0588 | 0.321 µM | 15.9 | 30.8 | 3.61 | 14.6 µM | 13.8 | 28 µM | 1.65 | > 50 | 1.12 | 13.8 µM

— PubChem BioAssay (NCI)
